3 molecules from patent US6900008B2, “Methods and formulations for minimizing spasticity in blood vessel grafts” (Emory University, priority 2001, dated 2005) can be followed below.

Marks after values point to notes of the source that are not given here.

Assay [1] deals with canine radial artery segments. Nature of the assay: Norepinephrine-induced contraction of pretreated canine radial artery segments in organ chambers. The note with it: for Maximal constriction response to norepinephrine, % of KCl response: KCl 30 mmol/L. The format is cell-based. Here is the method: (§1) Canine radial arteries were harvested without pedicles, and incubated in control buffer or solutions of papavarine (10^−6M), 2, 3-butadione monoxime (BDM, 10^−6M) (a putative protein phosphatase) or phenoxybenzamine (10^−6M) for a period of 30 minutes. The arteries were then washed with buffer and stored in a drug-free culture medium for a set time period (2 hours, 24 hours or 48 hours per example). After storage, vasopressors norepinephrine or phenylephrine were added at incremental concentrations ranging from 0.7 to 3.5 μmol/L (norepinephrine) or 0.300 to 1.5 μmol/L (phenylephrine) to all arterial samples to attempt to induce spasticity or vasoconstriction. The degree of vasoconstriction was then quantified in organ chambers. The responses of the arterial samples to norepinephrine or phenylephrine were compared with spasticity or constriction with receptor-independent potassium chloride (KCl) at 30 mmol/L.
(§2) The maximum responses of untreated and treated radial artery segments of KCl, phenylephrine and norepinephrine (in grams of tension) are summarized in Table 1. The constriction (contraction) responses to phenylephrine and norepinephrine given below are represented as a percentage of the responses to KCl, i.e. 100×(grams tension norepinephrine/grams tension KCl).

The subject of assay [2] is canine radial artery segments. Nature of the assay: Phenylephrine-induced contraction of pretreated canine radial artery segments in organ chambers. It is filed as cell-based. The conditions noted are these: for Constriction response to the maximum concentration of phenylephrine, % of KCl response: KCl 30 mmol/L. The procedure: as §1, §2
Assay [3] concerns human radial artery segments. Nature of the assay: Phenylephrine-induced vasoconstriction of human radial artery rings in organ chambers. The note with it: 15 μM PE. It is filed as cell-based. The procedure: Radial artery (RA) segments were obtained from patients having elective coronary artery bypass grafting with or without cardiopulmonary bypass at the Crawford Long Hospital of Emory University. A modified Allen's test was performed to assess the adequacy of collateral circulation to the hand preoperatively. The RA was harvested with its pedicle containing the venae comitantes, perivascular fat and areolar tissue (no fasciotomy) using a “no-touch” technique. Branches of the RA were ligated with vascular clips. A subset of the radial artery grafts had the musculofascial tissue incised (with fasciotomy) to expose the aerolar tissue adjacent to the graft. The RA was then placed in a solution containing 20 mL heparinized blood, 1.6 mL 1% lidocaine and 0.4 mL papaverine (30 mg/mL) for approximately 30 minutes. […] Prior to its placement in the aortocoronary position, a small segment of the RA was obtained and immediately placed in Krebs-Henseleit (K-H) buffer (118 mmol/L NaCl, 4.7 mmol/L KCl, 1.2 mmol/L KH2PO4, 1.2 mmol/L MgSO4, 2.5 mmol/L CaCl2, 12.5 mmol/L NaHCO3, and 10 mmol/L glucose) at 4° C., pH 7.4 and transported to the Cardiothoracic Research Laboratory.
The harvested radial artery segment with or without fasciotomy was placed into K-H buffer pH 7.4 with either 10, 100 or 1000 μM PBZ or vehicle. The radial artery was flushed intraluminally twice with this solution, once at the beginning and once at the end of a 30 minute incubation period, which approximates the time between RA harvest and placement in the aortocoronary position. In addition, Control RA segments were obtained prior to intraoperative pretreatment of the conduit with the papaverine/lidocaine solution and received no other treatment. The segments were prepared for placement in organ chambers by carefully skeletonizing them in cold K-H buffer and cutting them into rings three to five mm in length. The rings were then mounted on stainless steel hooks, connected to FT-03 force displacement transducers, and placed into Radnoti organ chambers (Radnoti Glass, Monrovia, Calif. containing 7 mL of oxygenated (95% O2, 5% CO2) K-H buffer at 37° C. and pH 7.4. Indomethacin (10 μmol/L) was added to the buffer to block responses to endogenous prostanoids. The rings were stabilized for one hour with frequent buffer changes and set to a predetermined tension that allowed 75% of maximal contraction to 30 mM potassium chloride (KCl).
The rings were then incubated with increasing concentrations of PE (0.5 to 15 μM) or NE (0.5 to 15 μM). After the highest concentration of alpha adrenergic agent was achieved, 30 mM KCl was added to the bath to quantify the maximal nonreceptor-mediated constriction. In randomly selected vessels, the integrity of the radial artery endothelium was also tested for its receptor-dependent relaxation response to incremental concentrations of acetylcholine (ACh), a stimulator of nitric oxide synthase. The rings were precontracted with the thromboxane A2 mimetic U46619 (1.4 nmol/L), and then exposed to increasing concentrations of Ach (1 nmol/L to 11.7 μmol/L) in the presence of 10 μM indomethacin.
The changes in isometric force were quantified using an analog-to-digital converter sampling at 2 Hz. The responses were analyzed using a Windows-based videographics program ([…], Wake Forest University, Winston-Salem, N.C.). The force of contraction elicited by the exposure to increasing concentrations of PE and NE was expressed as a percentage of the maximal contraction generated by KCl in each ring. The degree of relaxation after exposure to ACh was expressed as the percent tension reduction from the maximal force of contraction obtained from U46619.
If a significant difference between groups was assigned by ANOVA, a post-hoc Student-Newman-Keuls test was applied to locate the source of differences. A p value of <0.05 was considered to be statistically significant. All data are reported as means±the standard error of the mean.

In assay [4] the test system is radial artery segments (endothelium). Nature of the assay: Endothelial relaxation response to acetylcholine of stored radial artery segments. The format is cell-based, canine. An excerpt:
The endothelium contributes to the overall vascular tone by tonic release of autacoids such as nitric oxide among other vasoactive substances. In addition, any attenuation of function related to autacoid release by phenoxybenzamine or its diluents would be undesirable.

In assay [5] the test system is human radial artery segments. In words: Norepinephrine-induced vasoconstriction of human radial artery rings in organ chambers. It is filed as cell-based. Here is the method: (§3) Radial artery (RA) segments were obtained from patients having elective coronary artery bypass grafting with or without cardiopulmonary bypass at the Crawford Long Hospital of Emory University. A modified Allen's test was performed to assess the adequacy of collateral circulation to the hand preoperatively. The RA was harvested with its pedicle containing the venae comitantes, perivascular fat and areolar tissue (no fasciotomy) using a “no-touch” technique. Branches of the RA were ligated with vascular clips. A subset of the radial artery grafts had the musculofascial tissue incised (with fasciotomy) to expose the aerolar tissue adjacent to the graft. […]
(§4) The rings were then incubated with increasing concentrations of PE (0.5 to 15 μM) or NE (0.5 to 15 μM). After the highest concentration of alpha adrenergic agent was achieved, 30 mM KCl was added to the bath to quantify the maximal nonreceptor-mediated constriction. […]
(§5) The changes in isometric force were quantified using an analog-to-digital converter sampling at 2 Hz. The responses were analyzed using a Windows-based videographics program ([…], Wake Forest University, Winston-Salem, N.C.). The force of contraction elicited by the exposure to increasing concentrations of PE and NE was expressed as a percentage of the maximal contraction generated by KCl in each ring. […]

Assay [6] deals with human radial artery endothelium. In words: Endothelial function: relaxation to acetylcholine of U46619-precontracted human radial artery rings. The conditions noted are these: 12 μM ACh; without fasciotomy; PBZ at 1000 μM where used. It is filed as cell-based. Here is the method:
as §3, §4, §5

Where [7] appears, read: 2 Hours drug-free storage after 30 min incubation with 10^−6M drug.
The mark [8] stands for this setting: 24 Hours drug-free storage after 30 min incubation with 10^−6M drug.
The mark [9] stands for this setting: 48 Hours drug-free storage after 30 min incubation with 10^−6M drug.
Setting [10] is: 48 hours of storage, did not reach significance.
Setting [11] is: after washing (2 hours) or 24 or 48 hours after the 30-minute pretreatment, 10^−6M.
The mark [12] stands for this setting: 2 hours after 30 min pretreatment with 10^−6M drug.
Setting [13] is: 48 hours after 30 min pretreatment with 10^−6M drug.
The mark [14] stands for this setting: 24 hours after 30 min pretreatment with 10^−6M drug.

Turning to `COc1ccc(Cc2nccc3cc(OC)c(OC)cc23)cc1OC` [papaverine], the “Contraction response to norepinephrine from resting force (maximum response)” value (“Contraction response to norepinephrine” for short) is reported as 7.65 ± 0.72 grams of tension in assay [1] (setting [7]), 10.37 ± 0.26 grams of tension in assay [1] (setting [8]) and 12.55 ± 1.22 grams of tension in assay [1] (setting [9]). Also, the “Maximal constrictor response to norepinephrine compared with control vessels (in words)” value in assay [1] (setting [10]) was “paradoxical trend toward increased maximal constrictor response”. The “Effect on norepinephrine-induced contraction (in words)” value in assay [1] (setting [11]) is “no inhibitory effect”. The figures for the “Contraction response to phenylephrine from resting force (maximum response)” value (shortened to “Contraction response to phenylephrine”) in assay [2] (setting [7]), in assay [2] (setting [8]) and in assay [2] (setting [9]) were 14.29 ± 0.76 grams of tension, 12.33 ± 0.76 grams of tension and 10.46 ± 0.52 grams of tension, respectively. Moreover, the “Maximal constrictor response to phenylephrine compared with control vessels (in words)” value in assay [2] (setting [10]) is reported as “paradoxical trend toward increased maximal constrictor response”. In assay [2] (setting [11]), the “Effect on phenylephrine-induced contraction (in words)” value is given as “no inhibitory effect”.
With `CC(=O)C(C)=NO` [BDM, 2,3-butadione monoxime], the entries for the “Contraction response to norepinephrine” value in assay [1] (setting [7]), in assay [1] (setting [8]) and in assay [1] (setting [9]) were 5.69 ± 0.29 grams of tension, 4.22 ± 0.75 grams of tension and 7.01 ± 0.85 grams of tension, respectively. In assay [1] (setting [12]), the “Maximal constriction response to norepinephrine, % of KCl response” value is on record as “approximately 75%”. In addition, the “Constriction responses to norepinephrine compared with control vessels (in words)” value in assay [1] (after 24 hours and 48 hours of drug-free storage) is on record as “similar”. Moreover, the figures for the “Contraction response to phenylephrine” value in assay [2] (setting [7]), in assay [2] (setting [8]) and in assay [2] (setting [9]) were 8.35 ± 0.79 grams of tension, 9.43 ± 0.64 grams of tension and 7.01 ± 0.80 grams of tension, respectively. Besides, in assay [2] (setting [13]), the “Constriction response to the maximum concentration of phenylephrine, % of KCl response” value is “approximately 39%”. Besides, in assay [2] (at 2 hours and 24 hours), the “Constrictor responses to phenylephrine compared with control segments (in words)” value was “very similar”.
`CC(COc1ccccc1)N(CCCl)Cc1ccccc1` (centres unmarked) [phenoxybenzamine]: the “Attenuation of vasoconstriction response to PE, % of control” value in assay [3] (10 μM PBZ) stood at 63%; in assay [3] (100 μM PBZ), 80%; in assay [3] (1000 μM PBZ), 116%. Besides, the “Contraction at the highest concentration of PE, % of the KCl response” value in assay [3] (10 μM PBZ 30 min in addition to papaverine/lidocaine) is on record as 16.5±4.3%; in assay [3] (100 μM PBZ 30 min in addition to papaverine/lidocaine) it was 8.7±5.1%; in assay [3] (1000 μM PBZ 30 min in addition to papaverine/lidocaine), −7.2±4.4%. Further, the “Maximum relaxation response to the highest concentration of acetylcholine” value was 57%±6% in assay [4] (after 24 hours of storage), 30%±5% in assay [4] (after 48 hours of storage) and 61%±5% in assay [4] (at 2 hours of storage). Further, the results for the “Contraction response to norepinephrine” value in assay [1] (setting [7]), in assay [1] (setting [8]) and in assay [1] (setting [9]) were 0.80 ± 0.05^b grams of tension, −0.58 ± 0.05^b grams of tension and −1.62 ± 0.36^b grams of tension, respectively. For the same molecule, the “Maximal constriction response to norepinephrine, % of KCl response” value in assay [1] (setting [12]) is −7%±1%; in assay [1] (setting [14]) it was −5%±5%; in assay [1] (setting [13]) it was −20%±5%. For the same molecule, the figures for the “Contraction response to phenylephrine” value in assay [2] (setting [7]), in assay [2] (setting [8]) and in assay [2] (setting [9]) were 2.03 ± 0.13 ^b grams of tension, 0.20 ± 0.01^b grams of tension and −1.08 ± 0.19^b grams of tension, respectively. Moreover, the “Constriction response to the maximum concentration of phenylephrine, % of KCl response” value in assay [2] (setting [12]) is on record as 19%±8%; in assay [2] (setting [14]), 1%±4%; in assay [2] (setting [13]), −12%±4%. For the same molecule, in assay [5] (PBZ at 10 μM), the “Effect on constriction to NE (in words)” value is given as “inhibited constriction to concentrations of NE greater than 7 μM”. Besides, the “Effect on constrictor responses to NE (in words)” value in assay [5] (PBZ at 1000 μM, across all concentrations of NE) is recorded as “completely inhibited”. The “Relaxation response to ACh (percent tension reduction from U46619 contraction)” value in assay [6] is reported as 81.0±11.8%.
